The results in this text go back to patent US4055640A, “Compositions and methods for controlling the growth of bacteria, fungi and algae using certain derivatives of N-(2,2-dichlorovinyl)salicylamides” (Nippon Kayaku Co., Ltd., priority 1975, dated 1977).

Data set [1] relates to seedling blight of rice plant (pathogen Fusarium sp. and Rhizoctonia sp.). The experiment in a line: Exterminating test on seedling blight of rice plant (Experimental Example 1). The class given is in vivo. The note with it: soil, 408 h, 0.25g/box a.i., 5% dust mixed with soil; read-out: Percentage of healthy seedlings. A digest of the protocol:
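Pathogen-contaminated nursery soil (Fusarium sp., Rhizoctonia sp.) mixed with 5% compound dust at 5 g per box; Nihonbare rice sown, grown 7 days at 17° C in lighting chamber, then moved to field. Assessed 10 days later as percentage of healthy seedlings; commercial 4% hydroxyisoxazol dust run as control.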

The test system of data set [2] is Cladosporium cucumerinum (cucumber scab). As to the kind of experiment: Exterminating test on cucumber scab (Experimental Example 2). Details: scale not given here. The format is in vivo. The conditions noted are these: 500 ppm, 5 days after inoculation. In short, it runs like this: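 Potted cucumber seedlings (cv. Sagamihanjiro, 3–4 leaf stage) were sprayed with an aqueous suspension of 80% wettable powder, then spray-inoculated with Cladosporium cucumerinum spores 24 h later. Plants were held 24 h in a moist chamber at 20° C, then in a greenhouse at 20° C. Infected Index was scored 5 days after inoculation from leaf counts by attack severity.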

The next data set relates to Cladosporium cucumerinum. As to the kind of experiment: Exterminating test for seed treatment (Experimental Example 7). The format is in vivo. The source says: Exterminating test for seed treatment. Cucumber seeds (variety: Oyashima) were dipped in the spores suspension of Cladosporium cucumerinum and dried. After 1 day, the seeds were dressed with 80% wettable powder of the present invention. On the other hand, other seeds were dipped in the solution of 80% wettable powder of the present invention. Five (5) seeds treated by either dressing or dipping were placed on each potato dextrose agar plate. After 10 days after the treatment, degrees attacked by the pathogen were observed and the results were shown with an "Effective Index". An "Effective Index" was calculated as follows: [formula]

In data set [3] the test system is botrytis cinerea (gray mold). As to the kind of experiment: Exterminating test on gray mold of tomato (Experimental Example 5). The class given is in vivo. Details: scale not given here. The note with it: 1,000 ppm, 48 hours after inoculation, kidney bean leaves. A digest of the protocol:
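Kidney bean seedlings (5-6 leaf stage) sprayed with water-diluted 80% wettable powder; leaves detached 24 h later and inoculated with B. cinerea agar disks under moist conditions. Lesion diameters measured 48 h post-inoculation to calculate an Effect Index.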

The test system of data set [4] is seedlings of kidney beans (variety: Orient). As to the kind of experiment: Phytotoxicity on kidney beans (Experimental Example 5). The format is in vivo. The conditions noted are these: 1,000 ppm.
Data set [5] deals with Cucumber seeds (variety: Oyashima). The experiment in a line: Phytotoxicity on cucumber seeds (Experimental Example 7). The class given is in vivo.
The subject of data set [6] is Rhizoctonia solani (damping-off of cucumber). The experiment in a line: Exterminating test on damping-off of cucumber (Experimental Example 3). The class given is in vivo. The conditions noted are these: Rhizoctonia solani, soil, 240 h, 1,000 ppm, soil drench 50 ml per pot, 10 days; read-out: Percentage of healthy seedlings. A digest of the protocol:
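Percentage of healthy seedlings was scored 10 days post inoculation, with PCNB 50% wettable powder run alongside as reference. Each pot held 10 Azumamidori cucumber seeds in field soil carrying 5 g Rhizoctonia solani. Soil drench: 50 ml water suspension of 80% wettable powder; greenhouse.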

Data set [7] has as its system cucumber seedlings (variety: Sagamihanjiro). The experiment in a line: Phytotoxicity on cucumber seedlings (Experimental Example 2). The note with it: 500 ppm. The class given is in vivo. A digest of the protocol: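 Cucumber seedlings at the 3–4 leaf stage sprayed with water-diluted 80% wettable powder, then spray-inoculated with Cladosporium cucumerinum spores 24 h later. Plants held 24 h in a moist chamber at 20° C, then kept in a greenhouse at 20° C.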

The next data set relates to summer orange seedlings. As to the kind of experiment: Phytotoxicity on summer orange seedlings (Experimental Example 6). The conditions noted are these: 1,000 ppm. The class given is in vivo.
For a further data set, the system named is Penicillium Citrinum. As to the kind of experiment: Minimum inhibitory concentration, dilution methods (Example 14). The format is cell-based. The conditions noted are these: for MIC: Penicillium citrinum. The source says: (§1) Bacteriocidal activity and fungicidal activity of the active compounds of the present invention were examined by potato-dextrose agar dilution method, [2] waxman's liquid medium dilution method or [3] glucose bouillon medium dilution method. The results are shown in Table 4 below as the minimum inhibitory concentration (the minimum concentration of active compound found to produce 100% control of the test bacteria and fungi).

For the next data set, the system named is Escherichia coli. Described as above. The format is cell-based. The note with it: Escherichia coli.
Excerpt: as §1

The subject of the next data set is Staphylococcus aureus. The data set is described as above. The class given is cell-based. The conditions noted are these: for minimum inhibitory concentration: (1) potato-dextrose agar dilution method; for MIC: Staphylococcus aureus.
Excerpt: as §1
In general terms: In agar dilution, organisms are placed on agar that contains the substance at set levels.

[8] abbreviates: (1) potato-dextrose agar dilution method.
Setting [9] is: (2) waxman's liquid medium dilution method.
Setting [10] is: (3) glucose bouillon medium dilution method.

Values after ≈ are worked out from the molar mass of the structure shown. Values joined by “and” are separate entries in the source; they are usually repeats but may differ in a detail not shown here. Equal entries are not always repeated. Structures can show the parent of a compound that is named as a salt.

Regarding `CC(=O)Oc1ccccc1C(=O)NC=C(Cl)Cl` [Compound No. 6, O-acetyl-N-(2,2-dichlorovinyl) salicylamide], in data set [1], the Percentage of healthy seedlings at 0.25 g/box amounted to 83.2%. In addition, the “Infected Index” value in data set [2] is recorded as 8.2. Moreover, the “Effective Index” value was 88 and 81 in the data set with Cladosporium cucumerinum (dipped, 5,000 ppm (30 min.)); 95 with Cladosporium cucumerinum (dressed, 1 %). In [3], the “Effect Index” value was 75. The Phytotoxicity entry in [4] is listed as “Nil”; in data set [5] (dipped, 5,000 ppm (30 min.)) it was “Nil”; in data set [5] (dressed, 1 %) it was “Nil”; in data set [7], “Nil”; with summer orange seedlings, “Nil”. The pest or weed control at 1000 ppm in data set [6] turned out to be 100%.

Consider `O=C(NC=C(Cl)Cl)c1ccccc1O` [Compound No. 1, N-(β,β-dichlorovinyl) salicylamide], for which the Percentage of healthy seedlings at 0.25 g/box in data set [1] was 80.2%. Moreover, the MIC (as a rule, the smallest concentration in the dilution series that meets the test's criterion for growth inhibition) against Penicillium Citrinum (setting [8]) was 10 mg/L (≈ 43.1 µM); with Penicillium Citrinum (setting [9]), 20 mg/L (≈ 86.2 µM); in the data set on Escherichia coli (setting [8]) it was 80 mg/L (≈ 345 µM); against Escherichia coli (setting [9]) it was 80 mg/L (≈ 345 µM); against Staphylococcus aureus (setting [9]) it was 2.5 mg/L (≈ 10.8 µM). The compound further had a minimum inhibitory concentration with Staphylococcus aureus of 2.5 mc g/ml. The “Infected Index” value in data set [2] is recorded as 9.4. In addition, the “Effective Index” value with Cladosporium cucumerinum (dipped, 5,000 ppm (30 min.)) is 69; with Cladosporium cucumerinum (dressed, 1 %), 87. For the same compound, the “Effect Index” value in data set [3] came out at 84. Also, the Phytotoxicity result in [4] is reported as “Nil”; in data set [5] (dipped, 5,000 ppm (30 min.)) it was “Nil”; in [5] (dressed, 1 %) it was “Nil”; in data set [7] it was “Nil”; in the data set with summer orange seedlings, “Nil”. Moreover, in data set [6], the pest or weed control at 1000 ppm is 100%.

As for `O=C(NC=C(Cl)Cl)c1ccccc1O` [Compound No. 20, sodium salt of N-(β,β-dichlorovinyl) salicylamide], the minimum inhibitory concentration was 10 mc g/ml in the data set with Penicillium Citrinum (setting [8]) and 6 mc g/ml in the data set with Staphylococcus aureus. For the same compound, the MIC stood at 60 mg/L against Escherichia coli (setting [10]) and 5 mg/L with Staphylococcus aureus (setting [10]). Further, in data set [2], the “Infected Index” value came out at 13.7. In addition, in the data set on Cladosporium cucumerinum (dressed, 1 %), the “Effective Index” value was 90. In data set [3], the “Effect Index” value came out at 85. The Phytotoxicity result in data set [4] is given as “Nil”; in data set [5] (dressed, 1 %), “Nil”; in data set [7], “Nil”.
